# Experimental data reported in EPA's ToxValDB 9.5 (doi:10.2903/j.efsa.2010.1542).
# Key:
# Aphidius rhopalosiphi = assay: LR50; higher = less toxic; conditions: not reported; mortality
# Rattus norvegicus = conditions: for NOAEL: organ weight
# Canidae = conditions: chronic; duration: 1 years; oral; Dog Other; organ weight
# Daphnia magna = conditions: chronic/long-term; duration: 21 days; reproduction
# Apis mellifera = conditions: acute; duration: 48 hours; oral; unspecified; mortality
# Oncorhynchus mykiss = conditions: acute; duration: 96 hours; mortality
# Pimephales promelas = conditions: chronic/long-term; duration: 33 days; growth
# Bibionidae = conditions: chronic/long-term; duration: 28 days
smiles,measurement,setting,value
CO/C=C(/C(=O)OC)c1ccccc1Oc1cc(Oc2ccccc2C#N)ncn1 [Azoxystrobin],LR50,Aphidius rhopalosiphi,> 1000 g/ha
same,LD50,"Rattus norvegicus; acute, oral, mortality",> 5000 mg/kg-day
same,NOAEL,"Rattus norvegicus; chronic, duration: 2 years, oral, diet",18 mg/kg-day
same,NOEL,"Rattus norvegicus; reproduction developmental, body weight",32 mg/kg-day
same,NOAEL,"Rattus norvegicus; subchronic, duration: 90 days, oral",21 mg/kg-day
same,LC50,"Colinus virginianus; acute, oral, diet, mortality",> 5200 mg/kg-day
same,LD50,"Colinus virginianus; acute, oral, mortality",> 2000 mg/kg-day
same,NOEC,Colinus virginianus; reproduction developmental,1200 mg/kg-day
same,NOAEL,Canidae,25 mg/kg-day
same,NOEC,Daphnia magna,0.044 mg/L
same,LD50,Apis mellifera,> 25 µg/piece
same,LC50,Oncorhynchus mykiss,0.47 µg/mL
same,NOEC,Pimephales promelas,0.147 mg/L
same,NOEC,Bibionidae,0.8 mg/L
same,LC50,"Tagia sp.; acute, duration: 14 days, mortality",283 mg/kg
same,NOEC,"Tagia sp.; chronic/long-term, duration: 56 days",3 mg/kg
